Holding throughout (assay): Kinase spectrum evaluation, radiometric 33P-ATP kinase assay
Common to all, as to assay type: biochemical
Holding throughout (conditions): room temperature 2 h, 10 concentration gradients

Assay [1] deals with T1, EGFR (A763_Y764insFQEA) (Homo sapiens, UniProt P00533, INS763FQEA).
T1 construct: purchased Reaction Biology Corporation (commissioned test)

In assay [2] the target is T2, EGFR (G719S) (Homo sapiens, UniProt P00533, G719S).
T2 construct: purchased Reaction Biology Corporation (commissioned test)

Assay [3] has as its target T3, EGFR (L861Q) (Homo sapiens, UniProt P00533, L861Q).
T3 construct: purchased Reaction Biology Corporation (commissioned test)

Assay [4] concerns the target T4, EGFR (D770_N771insNPG/T790M) (Homo sapiens, UniProt P00533, INS770NPG/T790M).
T4 construct: purchased Reaction Biology Corporation (commissioned test)

Assay [5] addresses T5, EGFR (D770GY) (Homo sapiens, UniProt P00533, D770Y/INS769G).
T5 construct: purchased Reaction Biology Corporation (commissioned test)

In assay [6] the target is T6, EGFR (A763_Y764insFHEA) (Homo sapiens, UniProt P00533, INS763FHEA).
T6 construct: purchased Reaction Biology Corporation (commissioned test)

For assay [7], the target named is T7, ERBB2 (V777L) (Homo sapiens, UniProt P04626, V777L).
T7 construct: purchased Reaction Biology Corporation (commissioned test)
T7 sequence (P04626 23-1255 V777L): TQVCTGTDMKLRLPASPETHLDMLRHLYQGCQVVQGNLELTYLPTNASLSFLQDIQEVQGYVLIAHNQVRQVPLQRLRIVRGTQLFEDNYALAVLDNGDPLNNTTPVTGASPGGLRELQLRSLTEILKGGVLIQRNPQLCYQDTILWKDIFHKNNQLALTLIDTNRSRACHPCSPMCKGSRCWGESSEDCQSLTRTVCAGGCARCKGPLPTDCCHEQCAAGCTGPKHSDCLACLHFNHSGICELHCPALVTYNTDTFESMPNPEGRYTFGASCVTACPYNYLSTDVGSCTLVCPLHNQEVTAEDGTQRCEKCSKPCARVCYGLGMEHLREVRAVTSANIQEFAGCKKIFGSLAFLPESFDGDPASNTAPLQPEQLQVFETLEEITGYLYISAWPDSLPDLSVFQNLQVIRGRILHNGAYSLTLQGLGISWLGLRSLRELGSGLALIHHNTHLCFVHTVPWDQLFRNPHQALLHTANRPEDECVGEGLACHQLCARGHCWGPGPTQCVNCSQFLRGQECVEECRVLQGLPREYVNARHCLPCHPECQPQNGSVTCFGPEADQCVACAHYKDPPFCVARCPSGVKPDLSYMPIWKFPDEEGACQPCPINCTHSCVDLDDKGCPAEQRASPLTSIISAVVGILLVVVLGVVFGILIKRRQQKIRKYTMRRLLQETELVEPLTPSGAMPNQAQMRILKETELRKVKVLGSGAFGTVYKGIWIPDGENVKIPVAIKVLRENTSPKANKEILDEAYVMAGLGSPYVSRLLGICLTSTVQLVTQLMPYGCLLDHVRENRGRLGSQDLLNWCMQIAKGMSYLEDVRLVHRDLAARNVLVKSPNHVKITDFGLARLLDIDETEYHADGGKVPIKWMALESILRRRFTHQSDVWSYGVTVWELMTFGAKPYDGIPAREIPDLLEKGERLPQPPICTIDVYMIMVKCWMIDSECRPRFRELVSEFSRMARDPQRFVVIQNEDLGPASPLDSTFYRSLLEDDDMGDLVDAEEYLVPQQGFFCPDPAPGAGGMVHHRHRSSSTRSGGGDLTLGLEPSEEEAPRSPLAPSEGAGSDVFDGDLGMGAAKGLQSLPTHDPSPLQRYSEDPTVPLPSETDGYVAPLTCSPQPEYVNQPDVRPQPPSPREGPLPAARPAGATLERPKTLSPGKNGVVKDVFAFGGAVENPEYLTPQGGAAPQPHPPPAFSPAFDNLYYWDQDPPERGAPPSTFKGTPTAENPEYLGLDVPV

Assay [8] concerns the target T8, ERBB2 (V777_G778insCG) (Homo sapiens, UniProt P04626, INS777CG).
T8 construct: purchased Reaction Biology Corporation (commissioned test)

The target of assay [9] is T9, EGFR (G719D) (Homo sapiens, UniProt P00533, G719D).
T9 construct: purchased Reaction Biology Corporation (commissioned test)
T9 sequence (P00533 25-1210 G719D): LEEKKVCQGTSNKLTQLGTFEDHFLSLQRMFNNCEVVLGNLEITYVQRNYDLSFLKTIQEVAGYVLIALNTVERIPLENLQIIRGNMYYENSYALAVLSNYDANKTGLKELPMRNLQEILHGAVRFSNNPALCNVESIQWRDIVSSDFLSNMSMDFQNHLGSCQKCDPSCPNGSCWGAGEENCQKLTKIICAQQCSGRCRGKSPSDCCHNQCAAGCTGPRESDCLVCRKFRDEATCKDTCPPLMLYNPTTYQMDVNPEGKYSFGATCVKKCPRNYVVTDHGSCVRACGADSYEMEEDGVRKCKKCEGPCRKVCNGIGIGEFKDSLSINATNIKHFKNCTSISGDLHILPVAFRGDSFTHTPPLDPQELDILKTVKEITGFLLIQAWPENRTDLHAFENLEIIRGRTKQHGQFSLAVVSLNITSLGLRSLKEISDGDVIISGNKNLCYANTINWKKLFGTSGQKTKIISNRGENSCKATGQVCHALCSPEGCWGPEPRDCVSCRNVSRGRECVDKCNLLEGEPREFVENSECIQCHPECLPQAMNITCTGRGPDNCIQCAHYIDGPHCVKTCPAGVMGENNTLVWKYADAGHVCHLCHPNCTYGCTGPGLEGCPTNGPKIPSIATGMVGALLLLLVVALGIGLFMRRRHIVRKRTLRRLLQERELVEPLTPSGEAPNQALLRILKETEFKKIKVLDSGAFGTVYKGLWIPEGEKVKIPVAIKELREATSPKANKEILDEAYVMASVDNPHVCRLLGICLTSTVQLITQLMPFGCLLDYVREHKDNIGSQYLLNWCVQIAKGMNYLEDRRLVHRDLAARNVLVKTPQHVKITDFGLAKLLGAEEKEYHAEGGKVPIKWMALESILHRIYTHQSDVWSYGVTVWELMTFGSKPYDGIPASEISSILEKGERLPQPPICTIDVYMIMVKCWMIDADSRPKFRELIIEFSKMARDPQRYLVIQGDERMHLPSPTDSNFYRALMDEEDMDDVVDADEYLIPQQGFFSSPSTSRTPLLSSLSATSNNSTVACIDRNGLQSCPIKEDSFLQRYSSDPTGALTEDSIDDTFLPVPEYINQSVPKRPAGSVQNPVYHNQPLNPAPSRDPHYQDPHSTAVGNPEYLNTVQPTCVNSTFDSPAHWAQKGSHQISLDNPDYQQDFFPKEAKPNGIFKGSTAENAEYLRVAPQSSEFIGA

Assay [10] addresses T10, EGFR (G719C) (Homo sapiens, UniProt P00533, G719C).
T10 construct: purchased Reaction Biology Corporation (commissioned test)

Assay [11] concerns the target T11, ERBB2 (D769Y) (Homo sapiens, UniProt P04626, D769Y).
T11 construct: purchased Reaction Biology Corporation (commissioned test)

For assay [12], the target named is T12, EGFR (D770_N771insNPG) (Homo sapiens, UniProt P00533, INS770NPG).
T12 construct: purchased Reaction Biology Corporation (commissioned test)
T12 sequence (P00533 with tags, fused parts or gaps INS770NPG limits assumed): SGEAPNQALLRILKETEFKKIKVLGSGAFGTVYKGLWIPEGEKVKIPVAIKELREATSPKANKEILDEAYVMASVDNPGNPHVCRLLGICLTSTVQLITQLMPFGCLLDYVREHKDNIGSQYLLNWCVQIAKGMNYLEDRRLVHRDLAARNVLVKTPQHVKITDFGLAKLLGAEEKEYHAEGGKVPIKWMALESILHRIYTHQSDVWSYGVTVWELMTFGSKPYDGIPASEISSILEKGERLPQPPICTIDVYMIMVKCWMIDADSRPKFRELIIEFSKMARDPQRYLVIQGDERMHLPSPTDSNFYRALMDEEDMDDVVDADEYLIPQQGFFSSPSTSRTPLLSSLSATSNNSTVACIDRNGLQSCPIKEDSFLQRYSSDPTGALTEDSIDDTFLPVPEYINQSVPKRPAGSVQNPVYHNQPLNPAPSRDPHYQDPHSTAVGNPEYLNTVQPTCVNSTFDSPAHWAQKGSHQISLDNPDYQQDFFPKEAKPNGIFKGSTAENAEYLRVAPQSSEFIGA

The target in assay [13] is T13, EGFR (D761Y) (Homo sapiens, UniProt P00533, D761Y).
T13 construct: purchased Reaction Biology Corporation (commissioned test)

T8 sequence (P04626 with tags, fused parts or gaps INS777CG limits assumed): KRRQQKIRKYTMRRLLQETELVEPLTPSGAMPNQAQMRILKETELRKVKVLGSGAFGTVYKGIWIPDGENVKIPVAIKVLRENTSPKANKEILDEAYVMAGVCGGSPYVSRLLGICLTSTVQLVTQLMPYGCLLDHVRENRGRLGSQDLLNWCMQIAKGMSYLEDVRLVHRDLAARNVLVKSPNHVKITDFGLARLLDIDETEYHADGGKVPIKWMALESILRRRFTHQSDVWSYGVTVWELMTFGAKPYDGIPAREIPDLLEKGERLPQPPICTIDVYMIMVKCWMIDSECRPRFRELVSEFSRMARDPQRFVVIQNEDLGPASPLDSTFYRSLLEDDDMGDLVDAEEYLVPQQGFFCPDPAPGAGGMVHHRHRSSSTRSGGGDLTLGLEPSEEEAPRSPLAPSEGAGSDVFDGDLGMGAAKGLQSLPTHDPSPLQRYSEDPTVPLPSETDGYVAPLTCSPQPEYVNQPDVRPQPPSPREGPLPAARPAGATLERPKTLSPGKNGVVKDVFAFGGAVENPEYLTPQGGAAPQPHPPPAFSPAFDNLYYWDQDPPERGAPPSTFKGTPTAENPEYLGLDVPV
T3 sequence (P00533 25-1210 L861Q): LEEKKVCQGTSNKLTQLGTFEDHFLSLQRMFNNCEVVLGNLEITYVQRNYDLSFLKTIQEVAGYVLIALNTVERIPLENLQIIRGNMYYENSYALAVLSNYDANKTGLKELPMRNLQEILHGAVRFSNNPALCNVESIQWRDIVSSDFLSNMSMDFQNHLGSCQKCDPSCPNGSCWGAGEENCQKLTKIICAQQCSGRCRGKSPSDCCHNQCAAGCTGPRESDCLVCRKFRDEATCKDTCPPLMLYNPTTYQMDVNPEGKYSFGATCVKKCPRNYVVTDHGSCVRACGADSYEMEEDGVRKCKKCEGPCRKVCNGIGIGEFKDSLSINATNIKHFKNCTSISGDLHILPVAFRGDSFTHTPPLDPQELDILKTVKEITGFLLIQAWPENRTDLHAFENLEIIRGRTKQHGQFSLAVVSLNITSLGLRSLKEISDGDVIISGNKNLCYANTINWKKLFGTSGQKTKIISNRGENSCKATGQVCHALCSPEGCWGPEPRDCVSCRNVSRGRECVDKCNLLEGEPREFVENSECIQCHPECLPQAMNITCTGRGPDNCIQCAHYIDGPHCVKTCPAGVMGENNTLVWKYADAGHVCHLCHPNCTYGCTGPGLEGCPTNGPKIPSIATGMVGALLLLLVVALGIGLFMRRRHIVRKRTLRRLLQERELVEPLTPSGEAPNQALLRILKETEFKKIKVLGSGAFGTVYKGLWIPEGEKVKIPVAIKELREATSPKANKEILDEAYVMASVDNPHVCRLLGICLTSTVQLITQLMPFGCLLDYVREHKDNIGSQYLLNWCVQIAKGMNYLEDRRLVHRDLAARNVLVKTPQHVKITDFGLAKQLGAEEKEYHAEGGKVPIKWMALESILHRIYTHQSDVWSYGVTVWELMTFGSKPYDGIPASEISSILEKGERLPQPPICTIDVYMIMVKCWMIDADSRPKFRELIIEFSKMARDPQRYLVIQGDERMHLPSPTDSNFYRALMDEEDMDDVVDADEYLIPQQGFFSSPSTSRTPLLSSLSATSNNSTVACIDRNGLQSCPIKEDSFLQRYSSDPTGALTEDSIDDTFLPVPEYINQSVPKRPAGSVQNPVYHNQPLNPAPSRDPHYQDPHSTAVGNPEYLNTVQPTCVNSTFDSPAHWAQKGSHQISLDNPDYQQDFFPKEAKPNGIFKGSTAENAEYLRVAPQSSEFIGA

Consider `C=CC(=O)Nc1cccc(-n2c(=O)c(-c3ccccc3)nc3cnc(Nc4ccc(N5CCN(C)CC5)c(OC)c4)nc32)c1` [compound B], for which the IC50 stood at 0.78 nM in assay [1]; 0.97 nM in assay [2]; 1.67 nM in [3]; 1.89 nM in [4]; 0.76 nM in [5]; 1.56 nM in assay [6]. Also, the IC50 in assay [7] came out at 2.05 nM; in [8], 1.56 nM; in assay [9], 0.82 nM; in [10], 1.04 nM; in assay [11], 0.77 nM; in assay [12], 1.23 nM. In assay [13], this molecule yielded a half-inhibitory concentration (IC50) of 0.78 nM.

Regarding `C=CC(=O)Nc1cccc(-n2c(=O)c(C3CCCCC3)nc3cnc(Nc4ccc(N5CCN(C)CC5)cc4OC)nc32)c1` [compound C], the half-maximal inhibitory concentration (IC50) in assay [1] is 0.45 nM; in assay [2], 2.75 nM; in [3], 0.93 nM; in [4], 2.47 nM; in [5], 0.97 nM; in [6] it was 0.94 nM. In addition, the IC50 in assay [7] was determined as 1.63 nM; in assay [8], 2.76 nM; in assay [9], 3.78 nM; in assay [10], 1.79 nM; in assay [11] it was 4.58 nM; in assay [12] it was 3.67 nM. For the same molecule, the IC50 in assay [13] was 0.99 nM.

As to `C=CC(=O)Nc1cccc(-n2c(=O)c(-c3ccc(F)cc3)nc3cnc(Nc4ccc(N5CCN(C)CC5)cc4OC)nc32)c1` [compound D], the IC50 was found to be 1.92 nM in assay [1]; 3.02 nM in assay [2]; 1.04 nM in assay [3]; 0.99 nM in [4]; 0.87 nM in assay [5]; 0.57 nM in [6]. The IC50 in assay [7] was 1.87 nM; in [8], 1.96 nM; in assay [9] it was 2.91 nM; in [10], 2.41 nM; in assay [11], 0.78 nM; in assay [12] it was 2.78 nM. Inhibition in assay [13] was half-maximal at 0.45 nM (IC50).

As to `C=CC(=O)Nc1cccc(-n2c(=O)c(-c3ccc(OC)cc3)nc3cnc(Nc4ccc(N5CCN(C)CC5)cc4OC)nc32)c1` [compound E], the IC50 in [1] was 2.37 nM; in [2] it was 1.67 nM; in [3], 0.88 nM; in assay [4] it was 1.58 nM; in assay [5], 1.01 nM; in assay [6], 0.77 nM. Also, the IC50 in assay [7] was 0.82 nM; in assay [8], 3.78 nM; in assay [9] it was 1.64 nM; in assay [10], 1.64 nM; in [11], 2.59 nM; in assay [12], 1.74 nM. This molecule also displayed an IC50 in assay [13] of 0.62 nM.

(Values after patent US20230321103A1, “COMPOUND FOR INHIBITING MUTANT EGFR AND USE THEREOF” (East China University of Science and Technology, priority 2020, published 2023).)
